Test results taken from the supplement of paper PMC11208160.

Assay: recombinant barcode read abundance after kanamycin selection (control-corrected) (log10(CPM+1)); higher = more efficient recombination; sequences stand for … in AGTGCAGAGAAAATCGGCCAGTTTTCTCTGCCTGCAGTCCGCATGCCGT…AGATTTATGCAGCGGACTGCCTTTCTCCCAAAGTGATAAACCGGACAGTATCATGGACCGGTTTTCCCGGTAATCCGTATTTGCAAGGTTGGTTTCACT; site = the 11-nt target
In short: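 IS621 bridge RNA target-binding loops were paired with targets in a pooled library tested in E. coli. After co-electroporation with a donor plasmid, cells were plated in two replicates on chloramphenicol/ampicillin LB agar (control) and on chloramphenicol/ampicillin/kanamycin carrying 0.1 mM IPTG. Barcodes at recombinant junctions were counted as counts per million, averaged and control-corrected to give recombination efficiency. Values are log10(CPM+1).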
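Further: IS621 recombinase and bridge RNA in Escherichia coli cells.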

Sequence | recombinant barcode read abundance (log10)
AGAGATGCTTGGGTTCTAACCTGTTGCAG (site AGAGGAGCTCT) | 0.289
CGCTCCTCTTGGGTTCTAACCTGTTGCCT (site AGCTCCTCTAG) | 0.0659
TATTCTACTTGGGTTCTAACCTGTTGCGT (site TATTCTACTCC) | 0.365
TAGTAACCTTGGGTTCTAACCTGTTGCTT (site TAGTAACCTAA) | 0.683
ATATGTGCTTGGGTTCTAACCTGTTGCCG (site ATATGTGCTCG) | 1.71
ACTTAGACTTGGGTTCTAACCTGTTGCGG (site TCTTAGACTCC) | 0.416
TCGTGCCCTTGGGTTCTAACCTGTTGCTG (site TCGTGCCCTAA) | 0.0676
TGCCTATCTTGGGTTCTAACCTGTTGCTT (site TGCCTATCTAA) | 0.52
CAGGCGGCTTGGGTTCTAACCTGTTGCCT (site CAGGCGGCTAG) | 0.829
TCACGTCCTTGGGTTCTAACCTGTTGCGG (site TTACGTCCTCC) | 0.0483
TCTTGTCCTTGGGTTCTAACCTGTTGCGG (site TCTTGTCCTAC) | 0.0164
GACTCTCCTTGGGTTCTAACCTGTTGCAT (site GACTCTCCTAA) | 0.00987
GGGCTGTCTTGGGTTCTAACCTGTTGCTT (site GGGGTGTCTCA) | 0.37
CACTATCCTTGGGTTCTAACCTGTTGCCT (site CATTATCCTAG) | 0.0363
TGTTCCTCTTGGGTTCTAACCTGTTGCCT (site TGTGCCTCTAG) | 0.114
AGTATGTCTTGGGTTCTAACCTGTTGCCT (site AGTATGTCTAG) | 1.13
TGAAGGTCTTGGGTTCTAACCTGTTGCCT (site TGAATGTCTAG) | 0.362
ATTTCGACTTGGGTTCTAACCTGTTGCCT (site ATTTCGACTAG) | 0.16
ACACTGGCTTGGGTTCTAACCTGTTGCCT (site ACACTGGCTAG) | 0.987
TGCAGGGCTTGGGTTCTAACCTGTTGCGG (site GCATACACTTG) | 0.177
ACAGGTTCTTGGGTTCTAACCTGTTGCCT (site AAAGGTTCTAG) | 0.0508
AGAACAACTTGGGTTCTAACCTGTTGCCT (site AGGACAACTAG) | 0.456

Sequence | recombinant barcode read abundance (log10)
GCGTGCCCTTGGGTTCTAACCTGTTGCTA (site GCGTCCACTTA) | 0.00781
CACTCTGCTTGGGTTCTAACCTGTTGCCT (site CAATCTGCTAG) | 0.617
ATCCAACCTTGGGTTCTAACCTGTTGCCT (site ATCCAGCCTAG) | 0.348
TAGAAGACTTGGGTTCTAACCTGTTGCAT (site TAGAAGACTAT) | 1.01
GGGGCGGCTTGGGTTCTAACCTGTTGCCT (site GGGGCGGCTAG) | 1.8
GAGGGTACTTGGGTTCTAACCTGTTGCAT (site GAGGGTACTAT) | 2.69
TTCTTCCCTTGGGTTCTAACCTGTTGCCT (site TTCTTCCCTAG) | 0.235
CTAGACTCTTGGGTTCTAACCTGTTGCTT (site CTAGACTCTGA) | 0.0758
CTCACGCCTTGGGTTCTAACCTGTTGCTT (site CTCACGCCTAA) | 0.237
GAATCTACTTGGGTTCTAACCTGTTGCTT (site GAATCTACTAA) | 0.095
AAAGTCCCTTGGGTTCTAACCTGTTGCCT (site TAAGTCCCTAG) | 0.481
CACATACCTTGGGTTCTAACCTGTTGCGT (site CACATACCTCG) | 0.0777
TGCCTATCTTGGGTTCTAACCTGTTGCTT (site ATGTCTACTCT) | 0.325
TGGAGCACTTGGGTTCTAACCTGTTGCCT (site TGGAACACTAG) | 0
AGGTCCTCTTGGGTTCTAACCTGTTGCCT (site AGGTCCTCTAT) | 0.703
GGGCCTGCTTGGGTTCTAACCTGTTGCCA (site CTCGACCCTAT) | 0
CTACATTCTTGGGTTCTAACCTGTTGCGT (site CTACATTCTAC) | 1.52
TAAGCCTCTTGGGTTCTAACCTGTTGCTG (site TAAGCTACTCA) | 0
CGAGATTCTTGGGTTCTAACCTGTTGCCT (site CGAGATTCTAG) | 0.755
GAGAGAGCTTGGGTTCTAACCTGTTGCAT (site GAGGGAGCTAT) | 0.0621
CTGCATACTTGGGTTCTAACCTGTTGCCT (site CCGCATACTAG) | 0.217
GTTTGACCTTGGGTTCTAACCTGTTGCTT (site GTTTGGCCTAA) | 0.171

Sequence | recombinant barcode read abundance (log10)
CAGAACACTTGGGTTCTAACCTGTTGCCT (site GAGAACACTAG) | 0.198
AGGAACACTTGGGTTCTAACCTGTTGCTG (site AGGAACACTCA) | 2.65
CAAAGAGCTTGGGTTCTAACCTGTTGCTG (site CAAAGAGCTCA) | 1.38
GGTCGGACTTGGGTTCTAACCTGTTGCCA (site GGACGGACTTG) | 0.281
AATTTAGCTTGGGTTCTAACCTGTTGCCT (site AATTCAGCTAG) | 0.169
ATCGATGCTTGGGTTCTAACCTGTTGCCT (site ATCGATGCTAG) | 0.545
ATCTCAACTTGGGTTCTAACCTGTTGCCT (site ACCTTAACTAG) | 0.0254
GCCGAGTCTTGGGTTCTAACCTGTTGCCT (site GCCGAGTCTGT) | 0.142
GGAAGGTCTTGGGTTCTAACCTGTTGCAT (site GGAAGGTCTAT) | 1.98
GGATACACTTGGGTTCTAACCTGTTGCCA (site GGATGCACTTG) | 0.0123
ACCTTGCCTTGGGTTCTAACCTGTTGCCT (site ACCTTGCCTAG) | 0.012
CACCAACCTTGGGTTCTAACCTGTTGCCT (site CACCAAACTAG) | 0.112
CTAGTGACTTGGGTTCTAACCTGTTGCGG (site CTAGTGACTAC) | 0.0948
CTGATCACTTGGGTTCTAACCTGTTGCCT (site CTGATTACTAG) | 0.202
AAACGGCCTTGGGTTCTAACCTGTTGCCT (site AAACGGCCTAG) | 0.522
ATTAGGGCTTGGGTTCTAACCTGTTGCCG (site ATTGGGGCTCT) | 0.192
CACGCAACTTGGGTTCTAACCTGTTGCTT (site GAGGCAACTAA) | 0.888
CATAGCGCTTGGGTTCTAACCTGTTGCCT (site CATAGCGCTAG) | 0.605
ACGCGGCCTTGGGTTCTAACCTGTTGCCT (site GCGCGGCCTAG) | 0.147
TCGGAGTCTTGGGTTCTAACCTGTTGCGC (site TCGGAGTCTGC) | 1.37
AAGATAGCTTGGGTTCTAACCTGTTGCCT (site AAGATAGCTAG) | 1.59
ATTGGGTCTTGGGTTCTAACCTGTTGCCT (site ATTGGTTCTAG) | 0.102
